According to US9095535B2, “GABA release-regulating agent in cerebellum” (KOREA INSTITUTE OF SCIENCE AND TECHNOLOGY, priority 2009, dated 2015):
Structures can show the parent of a compound that is named as a salt.

Experiments:
cerebellar granule cells [1] = assay: Whole-cell patch clamp of tonic GABA current in cerebellar granule cells; format: cell-based, mouse; settings: for GABAzine-sensitive current after incubation: 150 μM BAPTA-AM (25 min) or 0.5 μM concanamycin A; for block of GABAzine-sensitive current by anion channel blockers: 100 μM Niflumic acid, DIDS concentration not given
Description: Brain slices were prepared as described in Rossi et al., 2003. For slice recording, either approximately P28 days old or more than 8 weeks old mice were used. Animals were deeply anesthetized with halothane. After decapitation, the brain was quickly excised from the skull and submerged in ice-cold cutting solution (in mM): 250 Sucrose, 26 NaHCO3, 10 D(+)-Glucose, 4 MgCl2, 3 myo-inositol, 2.5 KCl, 2 Sodium pyruvate, 1.25 NaH2PO4, 0.5 Ascorbic acid 0.1 CaCl2, 1 Kynurenic acid, pH 7.4. All solutions were gas-treated with 95% O2-5% CO2. After trimming both sides of vermis, several parasagittal slices with […] thicknesses containing cerebellar lobes were cut using a microtome (Leica VT 1000) and transferred to extracellular ACSF solution (in mM); 126 NaCl, 24 NaHCO3, 1 NaH2PO4, 2.5 KCl, 2.5 CaCl2, 2 MgCl2, 10 D(+)-Glucose, pH 7.4. Slices were incubated for one hour at least at room temperature.
For recording, slices were transferred to an electrophysiological recording chamber (RC-26G, Warner Instruments) which is continuously superfused with ASCF (artificial cerebrospinal fluid, sigma) solution (flow rate; 2 ml/min) and controlled by flower controller (Synaptosoft) and a vacuum pump (Charles Austen, model Capex 8C). Slice chamber was mounted on the stage of an upright microscope (Olympus, Japan) and viewed with an ×60 water immersion objective with differential interference contrast and infrared optics. Cellular morphologies were visually identified by Imaging Workbench 6.0 (INDEC Systems, Inc), camera controller (Hamamatsu, C4742-95), and light microscope controller (Olympus, TH4-200). Fluorescence images were viewed with mercury lamp (Olympus, U-RFL-T). Whole cell voltage-clamp recording was made from granular cell somata or Bergmann glial cells mostly located in 2-5 cerebellar lobules
Pipette resistance for granule cells was typically 10-12 MΩ and pipette was filled with an internal solution containing (in mM) 135 CsCl, 4 NaCl, 0.5 CaCl2, 10 HEPES, 5 EGTA, 2 Mg-ATP, 0.5 Na2-GTP, 10 QX-314, pH adjusted to 7.2 with CsOH (278-285 mOsmol) was used (Rossi, et al., 2003).
(§1) B6 wildtype, GFAP-GFP and hGFAP-CreERT2 trangenic mice (SPF room, Center for Neural Science, KIST, Seoul, Korea) were anaesthetized by intraperitoneal injection of 2% avertin (20 μl/g, sigma) and placed in a stereotaxic frame (David Kopf instrument). pSicoR-b1shRNA-mCherry or scrambled virus (Macrogen) was stereo-injected into cerebellar cortex at a rate of 0.2 μl/min (total 2 μl) using syringe pump (Harvard apparatus) and 25 μl syringe (Hamilton company). The coordination of injection site was 1.7 mm from the lambda and the depth was 1.5-1.7 mm from the skull.
The glia-specific CreERT activation was initiated by intraperitoneal injection of tamoxifen for 5 days prior to lentivirus injection (FIG. 4a,b). […] Tamoxifen or sunflower oil were injected intraperitoncally once a day for 5 days before lentivirus injection.

hBest1 = biological target: T1, hBest1 (Homo sapiens, UniProt O76090); settings: cited from earlier work
T1 sequence (O76090 1-585): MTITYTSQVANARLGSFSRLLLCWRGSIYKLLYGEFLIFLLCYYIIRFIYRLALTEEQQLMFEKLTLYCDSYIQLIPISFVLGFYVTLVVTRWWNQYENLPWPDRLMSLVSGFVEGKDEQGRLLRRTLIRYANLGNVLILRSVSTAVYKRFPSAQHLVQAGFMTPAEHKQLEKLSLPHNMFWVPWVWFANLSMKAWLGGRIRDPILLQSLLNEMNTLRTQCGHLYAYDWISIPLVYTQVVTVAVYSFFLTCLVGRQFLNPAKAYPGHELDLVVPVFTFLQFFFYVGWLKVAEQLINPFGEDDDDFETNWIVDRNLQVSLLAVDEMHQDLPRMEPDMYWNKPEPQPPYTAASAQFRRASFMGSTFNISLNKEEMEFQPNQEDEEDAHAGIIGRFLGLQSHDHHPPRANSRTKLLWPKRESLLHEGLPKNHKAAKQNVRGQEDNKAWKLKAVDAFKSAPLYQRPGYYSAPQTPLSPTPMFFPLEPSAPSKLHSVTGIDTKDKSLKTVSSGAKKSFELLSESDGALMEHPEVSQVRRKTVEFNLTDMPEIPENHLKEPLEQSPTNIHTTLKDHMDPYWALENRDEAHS

[2] = test system: cell line derived from type-2 astrocytes; settings: cited from earlier work
cerebellar granule cells [3] = assay: Clomeleon imaging of [Cl−]i in cerebellar granule cells (tonic GABA release); format: cell-based, mouse; settings: bath application of 10 μM
Description: as §1, with “skull. […]” for “skull.”
Clomeleon, based on fluorescence resonance energy transfer (FRET), is a genetically-encoded fluorescent indicator for Cl^− in which chloride-sensitive yellow fluroscent protein fused with chloride-insensitive cyan fluorescent protein via a flexible peptide linker (Kuner and Augustine, 2000). […]
For imaging, two ROIs (Regions of Interest) covering the granule cell layer and the molecular layer were drawn. […] Fluorescence excitation was produced by two consecutive 200 to 500 ms long light pulses at 0.5 Hz and fluorescence emission was alternately collected at each wavelength with a back-illuminated, cooled CCD camera with the on-chip multiplication gain control (Cascade 512B, Photometrics). […]

Best1 channel = biological target: T2, Best1 channel (Mus musculus, UniProt O88870); format: cell-based; settings: NPPB and NFA at 100 μM; inward current in GABAc sensor cell
T2 construct: mBest1 full-length fragment from pGEM-T easy plasmid (6.65 kb, Promega) was subcloned into pcDNA 3.1; expressed in transfected cells; host or cells: HEK293T (ATCC)
T2 sequence (O88870 1-551 R255K): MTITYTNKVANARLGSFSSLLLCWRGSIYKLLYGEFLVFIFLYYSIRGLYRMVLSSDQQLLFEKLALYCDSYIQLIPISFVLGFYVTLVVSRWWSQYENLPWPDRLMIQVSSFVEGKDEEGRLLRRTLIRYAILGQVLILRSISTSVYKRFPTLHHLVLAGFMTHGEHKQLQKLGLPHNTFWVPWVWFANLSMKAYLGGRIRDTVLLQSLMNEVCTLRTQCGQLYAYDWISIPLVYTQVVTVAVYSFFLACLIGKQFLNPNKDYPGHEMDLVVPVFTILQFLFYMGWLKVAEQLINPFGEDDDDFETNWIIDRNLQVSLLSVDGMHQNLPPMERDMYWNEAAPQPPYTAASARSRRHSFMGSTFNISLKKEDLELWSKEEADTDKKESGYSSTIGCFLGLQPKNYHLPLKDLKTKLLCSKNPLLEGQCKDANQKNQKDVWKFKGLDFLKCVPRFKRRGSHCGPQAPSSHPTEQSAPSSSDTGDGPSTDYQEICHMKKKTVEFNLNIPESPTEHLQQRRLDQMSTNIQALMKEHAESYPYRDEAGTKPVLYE
Description: For Best1 channel to mediate release of GABA, it has to permeate GABA upon channel opening. To test for GABA permeability of Best1 channel, a two-cell sniffer patch technique was developed to directly measure GABA release via Best1 channel in sensor HEK293T cells that express GABAc, and via other channels that are expressed in source HEK293T cells (FIG. 1b).
pIRES-Best1-dsRED plasmid (obtained by cloning Best1 using pIRES-dsRED (Invitrogen)) and GABAc with GFP (obtained by cloning GABAc using pcDNA3.1 (Invitrogen)) were transfected into HEK 293T cells (ATCC) using Effectene transfection reagent (Qiagen). […]
GABA release was induced by a break-though of membrane patch that goes into a whole-cell configuration in the source cell and such the released GABA was monitored and detected by a neighboring sensor cell. Full activation of GABA current was obtained by bath application of 100 μM GABA and the percentage of full activation was calculated (FIGS. 1c and 1d).
Permeated GABA is detected in sensor as an inward current (bottom traces). […] The GABA permeability of said mutant was determined by using cells obtained by transfecting said mutant into HEK293t cell (ATCC). […] The GABA permeability of said AN01 was determined by using cells obtained by transfecting said mutant into HEK293t cell (ACTT).

GABAc receptors = assay: Patch clamp of GABAc expressing HEK293 cells challenged with 100 μM GABA; format: cell-based; settings: 100 μM GABA in absence or presence of 100 μM NFA and 100 μM NPPB
Description: FIGS. 7a and 7b show the results when GABAc expressing HEK293 cells were patch clamped and challenged with 100 μM GABA in the absence and presence of 100 μM NFA and 100 μM NPPB; and
In FIGS. 7a and 7b, GABAc expressing HEK293 cells were patch clamped and challenged with 100 μM GABA in the absence or presence of 100 μM NFA and 100 μM NPPB.

SMILES: CC(=O)OCOC(=O)CN(CC(=O)OCOC(C)=O)c1ccccc1OCCOc1ccccc1N(CC(=O)OCOC(C)=O)CC(=O)OCOC(C)=O [BAPTA-AM, 1,2-Bis(2-aminophenoxy)ethane-N,N,N′,N′-tetraacetic acid tetrakis(acetoxymethyl ester)]
- GABAzine-sensitive current after incubation (cerebellar granule cells [1]): significantly reduced

SMILES: O=S(=O)(O)c1cc(N=C=S)ccc1C=Cc1ccc(N=C=S)cc1S(=O)(=O)O [DIDS, 4,4′-diisothiocyanatostilbene-2,2′-disulfonic acid]
- block of GABAzine-sensitive current by anion channel blockers (cerebellar granule cells [1]): blocked the GABAzine-sensitive current significantly
- block of hBest1 Cl− channel (hBest1): readily blocked
- sensitivity of P2X7-induced [3H]-GABA release to inhibitors [2]: sensitive

SMILES: COc1ccc(-c2ccc(=N)n(CCCC(=O)O)n2)cc1 [GABAzine, SR95531 hydrobromide]
- [Cl−]i in granular cell bodies and parallel fibers (cerebellar granule cells [3]): markedly decreased
- GABAzine-sensitive current (cerebellar granule cells [1]; naïve mice, holding −60 mV): 35.68±4.05 pA

SMILES: O=C(O)c1cccnc1Nc1cccc(C(F)(F)F)c1 [NFA, Niflumic acid]
- GABA release via Best1 (Best1 channel): completely abolished
- GABA response of GABAc expressing HEK293 cells (GABAc receptors): do not have significant impact
- block of GABAzine-sensitive current by anion channel blockers (cerebellar granule cells [1]): blocked the GABAzine-sensitive current significantly
- block of hBest1 Cl− channel (hBest1): readily blocked

SMILES: CC(=O)Nc1ccc(C=Cc2ccc(N=C=S)cc2S(=O)(=O)O)c(S(=O)(=O)O)c1 [SITS, 4-acetamido-4′-isothiocyanostilbene-2,2′-disulphonic acid]
- sensitivity of P2X7-induced [3H]-GABA release to inhibitors [2]: sensitive

SMILES: CC/C(=C(\c1ccccc1)c1ccc(OCCN(C)C)cc1)c1ccccc1 [Tamoxifen]
- NPPB-sensitive current (cerebellar granule cells [1]; hGFAP-CreERT2 mice with Tamoxifen and Best1-shRNA lentivirus, naïve 18.95±2.47 pA): 19.27±2.2 pA
- GABAzine-sensitive current (cerebellar granule cells [1]; hGFAP-CreERT2 mice, tamoxifen i.p. 5 days, then Best1-shRNA lentivirus (glia-specific rescue)): 31.31±2.19 pA

SMILES: C/C=C/[C@H]1O[C@@](O)([C@@H](C)[C@H](O)[C@H](C)[C@H]2OC(=O)/C(OC)=C/C(C)=C/[C@@H](C)[C@@H](O)[C@@H](CC)[C@@H](O)[C@H](C)C/C(C)=C/C=C/[C@@H]2OC)C[C@@H](O[C@H]2C[C@@H](O)[C@H](OC(N)=O)[C@@H](C)O2)[C@@H]1C [concanamycin A]
- GABAzine-sensitive current after incubation (cerebellar granule cells [1]): did not have such affect
